# Data taken from US11414374B2, “Crystalline forms of vilanterol trifenatate and processes for their preparation” (Hovione Scientia Limited, priority 2017, dated 2022).
# Like-named read-outs stand apart in the source and are kept apart here.
# Key:
# Type in all cases: physicochemical
# [1] = DSC - differential scanning calorimetry; settings: for DSC (onset) endo. degradation: endothermic event: degradation; for DSC (onset) endo. melting: endothermic event: melting; for DSC (onset) endo. solvent loss: endothermic event: solvent loss
# Experimental: The analysis was carried out using a DSC Q200 TA instruments equipped with a refrigerator cooling system (RCS40) and autosampler. The sample was weighed in an aluminum hermetic pan with pinhole. The analysis was performed heating the sample from 25° C. to 350° C. at 10° C./min.
# [2] = TGA / TGA-EGA thermogravimetric analysis with evolved gas analysis; settings: for TGA overall weight loss: overall loss of the named solvent(s); for EGA: evolved solvent identified
# Experimental: The analysis was carried out using the Mettler Toledo TGA/DSC1. The sample was weighed in an aluminum pan hermetically sealed with an aluminum pierced cover. The analysis was performed heating the sample from 25° C. to 320° C. at 10° C./min. TGA-FTIR coupled with Thermo Nicoled is 10 spectometer. The analysis was carried out using the mettler toledo TGA/DSC1. The sample was weighed in an aluminum pan hermetically sealed with an aluminum pierced cover. The analysis was performed heating the sample from 25° C. to 320° C. at 10° C./min. The evolved gas is compared with ft-ir spectra database for identification.
# [3] = Stability test (exposed sample 16 h), form by XRPD; settings: resulting form
# [4] = Stability test (sealed vial 18 h), form by XRPD; settings: resulting form
# [5] = Storage stability of exposed powder at 25° C. and 60% RH for seven days, compared by XRPD; settings: 60% RH and 25° C. for 7 days, exposed powder
# Experimental: Approximately 30 mg of exposed powder of comparative form 1 and new forms II and III, respectively, were stored at 25′C and 60% RH for seven days. Each powder was then analyzed by XRPD and its diffraction pattern was compared with that of untreated sample.
# [6] = Visual solubility in differing solvents (European Pharmacopeia 6.0 section 5.11); settings: for solubility at 15 min: 25 °C, organic solvent or mixture, thermodynamic from solid; for visual solubility in water: water at 75° C.
# Experimental: Visual solubility of certain forms (compounds) in differing solvents was assessed according to the procedure described in the European Pharmacopeia 6.0 section 5.11. p. The compound was shaken vigorously for 1 min and placed in a constant temperature device for 15 min at 25.0±0.5° C. If the compound was not completely dissolved, the shaking was repeated for 1 min and the tube placed in a constant temperature device for 15 min. 50 mg of compound was weighed in a stoppered tube, 0.05 mL of the solvent added and the Dissolving Procedure (see above) followed. If the compound was completely dissolved, it is very soluble. If the compound was not completely dissolved, a further 0.45 mL of the solvent was added and the Dissolving Procedure (see above) followed. […] If the compound was still not completely dissolved, still further 1.0 mL of the solvent was added and the Dissolving Procedure (see above) followed. If the compound was completely dissolved, it is soluble. If the compound was still not completely dissolved, another 3.5 mL of the solvent was added and the Dissolving Procedure (see above) followed. […] If the compound was still not completely dissolved, the compound is slightly soluble or very slightly soluble. In this case, and the suspension was heated up to the boiling point (max 80° C.) under stirring to verify the solubility at high temperature. The hot solution was afterwards cooled to room temperature to observe whether the compound precipitates. If the compound at room temperature was completely dissolved, it is soluble at high temperature. [table]
# [7] = Micronization in fluid energy jet mill: particle size distribution and XRPD of product; settings: for XRPD of micronized product versus starting material: after fluid energy jet milling
# Description: Vilanterol trifenatate form II is fed to a fluid energy jet mill at 10-100 g/h, operated with N2 at a pressure of 1 to 8 bar for the venturi and a pressure of 1 to 8 bar for the ring.
# [8] = Dynamic vapor sorption (DVS) analysis / hygroscopicity (EP 7.0 classification); settings: for hygroscopicity classification according to the European Pharmacopoeia (EP, version 7.0) / mass increase by dynamic vapor sorption analysis (hygroscopicity): 80% RH and 25° C.; for mass increase by dynamic vapor sorption analysis (hygroscopicity): first sorption cycle, relative to 40% RH; for stability / XRPD pattern after DVS analysis: compared with untreated sample; for Change In Mass (%) Desorption / Change In Mass (%) Hysteresis / Change In Mass (%) Sorption: DVS, 25° C.
# Experimental: The hygroscopicity value is directly obtained from the sorption row at 80% RH, cycle 1.
# Hygroscopicity of a sample of each of new form II and comparative form I was determined using the protocol provided below in conditions of 80% RH and 25° C.
# The sample was subjected to DVS measuring using SMS-DVS intrinsic. The kinetic moisture sorption measurement was performed at 25° C. and in a RH % range described in the following: • From 40% RH to 90% RH • Form 90% RH to 0% RH • From 0% RH to 90% RH • From 90% RH to 0% RH
# The sample was analyzed by XRPD after the analysis.
# The hygroscopicity was calculated using the following equation: % Weight Change=[(W2−W1)/W1]*100 W1: weight of sample at the start of the experiment (25° C. and 40% RH) W2: weight of sample at 25° C. and 80% RH in the first absorption cycle
smiles,measurement,setting,value
"OCc1cc([C@@H](O)CNCCCCCCOCCOCc2c(Cl)cccc2Cl)ccc1O [form XIII, vilanterol trifenatate]",DSC (onset) endo. degradation,[1]; listed as Form 13,endo. 189 °C
same,DSC (onset) endo. melting,[1]; listed as Form 13,endo. 105 °C
same,DSC (onset) exo. recrystallization,[1]; exothermic event: recrystallization,exo. 93 °C
same,TGA overall weight loss,[2]; listed as Form 13,One loss of 34% w/w
same,Stability test (exposed sample 16 h),[3]; listed as Form 13,Form 12
same,Stability test (sealed vial 18 h),[4]; listed as Form 13,Form 12 (almost
"OCc1cc([C@@H](O)CNCCCCCCOCCOCc2c(Cl)cccc2Cl)ccc1O [form I, 4-((1R)-2-((6-(2-((2,6-Dichlorophenyl)methoxy)ethoxy)hexyl)amino)-1-hydroxyethyl)-2-(hydroxymethyl)phenol triphenylacetate, reference compound]",modifications in XRPD pattern after storage (structural stability),[5],No significant modifications in XRPD pattern
same,"visual solubility in 1,4-dioxane","[6]; 1,4-dioxane at 25° C.","freely soluble (a further 0.45 mL of the solvent was added and the Dissolving Procedure (see above) followed. If the compound was completely dissolved, it is freely soluble.)"
same,solubility at 15 min,"[6]; ethanol, ethanol at 25° C., read-out: visual solubility in ethanol",10 to 33 mg/mL
same,solubility at 15 min,"[6]; methanol, methanol at 25° C., read-out: visual solubility in methanol",33 to 100 mg/mL
same,visual solubility in water,[6],insoluble
same,XRPD of micronized product versus starting material,[7],identical to that of the starting material
same,particle size distribution Dv50 after micronization,"[7]; fluid energy jet mill, N2",4.2 μm
same,particle size distribution Dv90 after micronization,"[7]; fluid energy jet mill, N2",9.6 μm
same,"hygroscopicity classification according to the European Pharmacopoeia (EP, version 7.0)",[8],non-hygroscopic
same,mass increase by dynamic vapor sorption analysis (hygroscopicity),[8],0.19%
same,stability / XRPD pattern after DVS analysis,[8],showed stability after DVS analysis
"OCc1cc([C@@H](O)CNCCCCCCOCCOCc2c(Cl)cccc2Cl)ccc1O [form V, vilanterol trifenatate]",DSC (onset) endo. Form 1 melting,"[1]; endothermic event: Form 1 melting, listed as Form 5",endo. 134 °C Form 1
same,DSC (onset) endo. degradation,[1]; listed as Form 5,endo. 188 °C degradation
same,DSC (onset) endo. solvent loss,[1]; listed as Form 5,endo. 55-100 °C solvent loss
same,EGA,[2]; listed as Form 5,Methylcyclohexane
same,Stability test (exposed sample 16 h),[3]; listed as Form 5,Form 2
same,Stability test (sealed vial 18 h),[4]; listed as Form 5,Strong crystanllinity
"OCc1cc([C@@H](O)CNCCCCCCOCCOCc2c(Cl)cccc2Cl)ccc1O [form III, vilanterol trifenatate]",modifications in XRPD pattern after storage (structural stability),[5],No significant modifications in XRPD pattern
same,visual solubility in tetrahydrofuran (THF),[6]; THF at 25° C.,"sparingly soluble (another 3.5 mL of the solvent was added and the Dissolving Procedure (see above) followed. If the compound was completely dissolved, it is sparingly soluble.)"
same,visual solubility in water,[6],insoluble
same,XRPD of micronized product versus starting material,[7],identical to the one of the starting material
same,particle size distribution Dv90 after micronization,"[7]; fluid energy jet mill, N2",below 10 μm
same,"hygroscopicity classification according to the European Pharmacopoeia (EP, version 7.0)",[8],slightly hygroscopic
same,mass increase by dynamic vapor sorption analysis (hygroscopicity),[8],1.1%
same,Change In Mass (%) Desorption,"[8]; Cycle 1, target RH 0.0%",−0.017%
same,Change In Mass (%) Desorption,"[8]; Cycle 1, target RH 10.0%",0.002%
same,Change In Mass (%) Desorption,"[8]; Cycle 1, target RH 20.0%",0.015%
same,Change In Mass (%) Desorption,"[8]; Cycle 1, target RH 30.0%",0.024%
same,Change In Mass (%) Desorption,"[8]; Cycle 1, target RH 40.0%",0.035%
same,Change In Mass (%) Hysteresis,"[8]; Cycle 1, target RH 40.0%",0.035%
same,Change In Mass (%) Sorption,"[8]; Cycle 1, target RH 40.0%",0.000%
same,Change In Mass (%) Desorption,"[8]; Cycle 1, target RH 50.0%",0.280%
same,Change In Mass (%) Hysteresis,"[8]; Cycle 1, target RH 50.0%",0.271%
same,Change In Mass (%) Sorption,"[8]; Cycle 1, target RH 50.0%",0.008%
same,Change In Mass (%) Desorption,"[8]; Cycle 1, target RH 60.0%",0.421%
same,Change In Mass (%) Hysteresis,"[8]; Cycle 1, target RH 60.0%",0.399%
same,Change In Mass (%) Sorption,"[8]; Cycle 1, target RH 60.0%",0.022%
same,Change In Mass (%) Desorption,"[8]; Cycle 1, target RH 70.0%",0.567%
same,Change In Mass (%) Hysteresis,"[8]; Cycle 1, target RH 70.0%",0.530%
same,Change In Mass (%) Sorption,"[8]; Cycle 1, target RH 70.0%",0.037%
same,Change In Mass (%) Desorption,"[8]; Cycle 1, target RH 80.0%",1.144%
same,Change In Mass (%) Hysteresis,"[8]; Cycle 1, target RH 80.0%",0.061%
same,Change In Mass (%) Sorption,"[8]; Cycle 1, target RH 80.0%",1.083%
same,Change In Mass (%) Desorption,"[8]; Cycle 1, target RH 90.0%",1.857%
same,Change In Mass (%) Sorption,"[8]; Cycle 1, target RH 90.0%",1.857%
same,Change In Mass (%) Sorption,"[8]; Cycle 2, target RH 0.0%",−0.017%
same,Change In Mass (%) Sorption,"[8]; Cycle 2, target RH 10.0%",−0.003%
same,Change In Mass (%) Sorption,"[8]; Cycle 2, target RH 20.0%",0.008%
same,Change In Mass (%) Sorption,"[8]; Cycle 2, target RH 30.0%",0.016%
same,Change In Mass (%) Sorption,"[8]; Cycle 2, target RH 40.0%",0.025%
same,Change In Mass (%) Sorption,"[8]; Cycle 2, target RH 50.0%",0.033%
same,Change In Mass (%) Sorption,"[8]; Cycle 2, target RH 60.0%",0.041%
same,Change In Mass (%) Sorption,"[8]; Cycle 2, target RH 70.0%",0.056%
same,Change In Mass (%) Sorption,"[8]; Cycle 2, target RH 80.0%",1.111%
same,Change In Mass (%) Sorption,"[8]; Cycle 2, target RH 90.0%",1.952%
same,stability / XRPD pattern after DVS analysis,[8],no significant modifications
"OCc1cc([C@@H](O)CNCCCCCCOCCOCc2c(Cl)cccc2Cl)ccc1O [form IV, vilanterol trifenatate]",DSC (onset) endo. degradation,[1]; listed as Form 4,endo. 189 °C degradation
same,DSC (onset) endo. melting,[1]; listed as Form 4,endo. 76 °C melting
same,EGA,[2]; listed as Form 4,Cyclohexane
same,TGA overall weight loss,[2]; listed as Form 4,overall loss of 40% w/w/
same,Stability test (exposed sample 16 h),[3]; listed as Form 4,Form 2
same,Stability test (sealed vial 18 h),[4]; listed as Form 4,Form 12
"OCc1cc([C@@H](O)CNCCCCCCOCCOCc2c(Cl)cccc2Cl)ccc1O [form XIV, vilanterol trifenatate]",DSC (onset) endo. solvent loss + melting,"[1]; endothermic event: solvent loss + melting (Form 6: + Form 2 melting; Form 14: + Form 3 melting), listed as Form 14",endo. 80 °C solvent
same,DSC (onset) endo. solvent loss,[1]; listed as Form 14,endo. 58 °C solvent loss
same,EGA,[2]; listed as Form 14,Methylcyclohexane
same,TGA overall weight loss,[2]; listed as Form 14,loss of 26% w/w
same,Stability test (exposed sample 16 h),[3]; listed as Form 14,Form 3
same,Stability test (sealed vial 18 h),[4]; listed as Form 14,Form 3 (almost
